In ChEMBL document CHEMBL1137975, “DNA binding ligands with in vivo efficacy in murine models of bacterial infection: optimization of internal aromatic amino acids” (2004):
Converted amounts (≈) assume the structure as drawn.

Key:
[1] = Minimum inhibitory concentration in mice against antimicrobial activity in […] (PISP 49619).; assay type: functional; conditions: Streptococcus pneumoniae
Staphylococcus aureus = test: Minimum inhibitory concentration in mice against antimicrobial activity in methicillin-resistant Staphylococcus aureus(MRSA 27660).; assay type: functional
Enterococcus faecalis = test: Minimum inhibitory concentration in mice against antimicrobial activity in vancomycin-sensitive Enterococcus faecalis (VSEF 29212).
Mus musculus [2] = organism: Mus musculus; test: Minimum inhibitory concentration was evaluated in mice against antimicrobial activity in methicillin-resistant Staphylococcus aureus(MRSA 27660); 0.06-0.13; assay type: functional
Mus musculus [3] = organism: Mus musculus; test: Minimum inhibitory concentration was evaluated in mice against antimicrobial activity in […] (PISP 49619); 0.03-0.06; assay type: functional
Mus musculus [4] = organism: Mus musculus; test: Minimum inhibitory concentration was evaluated in mice against antimicrobial activity in methicillin-resistant Staphylococcus aureus(MRSA 27660); 1-2; assay type: functional
Mus musculus [5] = organism: Mus musculus; test: Minimum inhibitory concentration was evaluated in mice against antimicrobial activity in […] (PISP 49619); 0.13-0.25; assay type: functional
Mus musculus [6] = organism: Mus musculus; test: Minimum inhibitory concentration was evaluated in mice against antimicrobial activity in […] (PISP 49619); 0.5-1; assay type: functional
Mus musculus [7] = organism: Mus musculus; test: Minimum inhibitory concentration was evaluated in mice against antimicrobial activity in methicillin-resistant Staphylococcus aureus(MRSA 27660); 0.25-1; assay type: functional
Mus musculus [8] = organism: Mus musculus; test: Minimum inhibitory concentration was evaluated in mice against antimicrobial activity in […] Enterococcus faecalis (VSEF 29212); 0.5-2; assay type: functional
Mus musculus [9] = organism: Mus musculus; test: Minimum inhibitory concentration was evaluated in mice against antimicrobial activity in […] (PISP 49619); 1-2; assay type: functional
Mus musculus [10] = organism: Mus musculus; test: Minimum inhibitory concentration was evaluated in mice against antimicrobial activity in […] (PISP 49619); 0.03-0.13; assay type: functional
Mus musculus [11] = organism: Mus musculus; test: Minimum inhibitory concentration was evaluated in mice against antimicrobial activity in […] Enterococcus faecalis (VSEF 29212); 0.13-1; assay type: functional

Row | SMILES | MIC [1] [µg/mL] | MIC (Staphylococcus aureus) [µg/mL] | MIC (Enterococcus faecalis) [µg/mL] | also measured
1 | CC(=O)NCC1CN(c2ccc(N3CCOCC3)c(F)c2)C(=O)O1 (single isomer, unassigned) [LINEZOLID] | 1 (≈ 2.96 µM) |  |  | 
2 | Cn1cc(NC(=O)c2cc(NC(=O)c3cc(NC(=O)c4sccc4Cl)nn3C)cn2C)cc1C(=O)NCCN1CCOCC1 | 0.25 (≈ 0.389 µM) | 8 (≈ 12.5 µM) | 8 (≈ 12.5 µM) | 
3 | Cn1cc(NC(=O)c2ccc(NC(=O)c3cc(NC(=O)c4cc5ccccc5cn4)cn3C)cc2)cc1C(=O)NCCN1CCOCC1 |  |  |  | MIC (Mus musculus [2]): 0.13 µg/mL (≈ 0.2 µM); MIC (Mus musculus [3]): 0.06 µg/mL (≈ 0.0925 µM)
4 | Cn1cc(NC(=O)c2ccc(NC(=O)c3cc(NC(=O)c4cc5cc6c(cc5s4)OCO6)cn3C)cc2)cc1C(=O)NCCN1CCOCC1 | 0.5 (≈ 0.717 µM) | 32 (≈ 45.9 µM) | > 32 | 
5 | Cn1cc(NC(=O)c2cccc(NC(=O)c3cc(NC(=O)c4sccc4Cl)cn3C)c2)cc1C(=O)NCCN1CCOCC1 | > 32 | > 32 | > 32 | 
6 | Cn1cc(NC(=O)c2cc(NC(=O)CCNC(=O)c3cc4ccccc4cn3)cn2C)cc1C(=O)NCCN1CCOCC1 | 8 (≈ 13.3 µM) | 32 (≈ 53.3 µM) | 16 (≈ 26.6 µM) | 
7 | Cn1cc(NC(=O)c2sccc2Cl)cc1C(=O)Nc1cc(C(=O)Nc2cccc(C(=O)NCCN3CCOCC3)c2)n(C)c1 | 8 (≈ 12.5 µM) | 16 (≈ 25.1 µM) | 16 (≈ 25.1 µM) | 
8 | Cn1cc(NC(=O)c2cc(NC(=O)c3ccc(NC(=O)c4sccc4Cl)cc3)cn2C)cc1C(=O)NCCN1CCOCC1 | 32 (≈ 50.1 µM) | 32 (≈ 50.1 µM) | 16 (≈ 25.1 µM) | 
9 | Cn1cc(NC(=O)c2cc(NC(=O)c3cc(NC(=O)c4cc5ccccc5cn4)cs3)cn2C)cc1C(=O)NCCN1CCOCC1 |  |  |  | MIC (Mus musculus [4]): 2 µg/mL (≈ 3.05 µM); MIC (Mus musculus [5]): 0.25 µg/mL (≈ 0.382 µM)
10 | Cn1cc(NC(=O)c2cc(NC(=O)c3cc(NC(=O)c4cc5ccccc5cn4)nn3C)cn2C)cc1C(=O)NCCN1CCOCC1 | 0.5 (≈ 0.766 µM) | 1 (≈ 1.53 µM) | 8 (≈ 12.3 µM) | 
11 | Cn1cc(NC(=O)c2sccc2Cl)cc1C(=O)Nc1cc(C(=O)Nc2ccc(C(=O)NCCN3CCOCC3)cc2)n(C)c1 | > 32 | > 32 | > 32 | 
12 | Cn1cc(NC(=O)c2cc(NC(=O)c3cc(NC(=O)c4cc5ccccc5cn4)cn3C)cs2)cc1C(=O)NCCN1CCOCC1 | 0.5 (≈ 0.764 µM) | 8 (≈ 12.2 µM) | > 32 | 
13 | Cn1cc(NC(=O)c2cc(NC(=O)c3cc(NC(=O)c4cc5ccccc5cn4)c[nH]3)cn2C)cc1C(=O)NCCN1CCOCC1 |  |  | 0.5 (≈ 0.784 µM) | MIC (Mus musculus [4]): 2 µg/mL (≈ 3.14 µM); MIC (Mus musculus [6]): 1 µg/mL (≈ 1.57 µM)
14 | Cn1cc(NC(=O)c2cc(NC(=O)c3cc(NC(=O)c4cc5ccccc5cn4)cn3C)c[nH]2)cc1C(=O)NCCN1CCOCC1 |  |  |  | MIC (Mus musculus [7]): 1 µg/mL (≈ 1.57 µM); MIC (Mus musculus [8]): 2 µg/mL (≈ 3.14 µM); MIC (Mus musculus [9]): 2 µg/mL (≈ 3.14 µM)
15 | CN[C@H](CC(C)C)C(=O)N[C@H]1C(=O)N[C@@H](CC(N)=O)C(=O)N[C@H]2C(=O)N[C@H]3C(=O)N[C@H](C(=O)N[C@H](C(=O)O)c4cc(O)cc(O)c4-c4cc3ccc4O)[C@H](O)c3ccc(c(Cl)c3)Oc3cc2cc(c3O[C@@H]2O[C@H](CO)[C@@H](O)[C@H](O)[C@H]2O[C@H]2C[C@](C)(N)[C@H](O)[C@H](C)O2)Oc2ccc(cc2Cl)[C@H]1O [VANCOMYCIN] | 0.25 (≈ 0.173 µM) |  | 1 (≈ 0.69 µM) | 
16 | Cn1cc(NC(=O)c2cc(NC(=O)c3nc(NC(=O)c4sccc4Cl)cn3C)cn2C)cc1C(=O)NCCN1CCOCC1 |  |  |  | MIC (Mus musculus [10]): 0.13 µg/mL (≈ 0.202 µM); MIC (Mus musculus [11]): 1 µg/mL (≈ 1.56 µM)
17 | Cn1cc(NC(=O)c2cc(NC(=O)c3cc(NC(=O)c4sccc4Cl)c[nH]3)cn2C)cc1C(=O)NCCN1CCOCC1 | 2 (≈ 3.19 µM) | 8 (≈ 12.8 µM) | 2 (≈ 3.19 µM) | 
18 | Cc1cnc(C(=O)Nc2cc(C(=O)Nc3ccc(C(=O)Nc4cc(C(=O)NCCN5CCOCC5)n(C)c4)cc3)n(C)c2)cn1 | 0.13 (≈ 0.212 µM) | 0.5 (≈ 0.815 µM) | 2 (≈ 3.26 µM) | 
19 | Cn1cc(NC(=O)c2cc(NC(=O)c3cccc(NC(=O)c4sccc4Cl)c3)cn2C)cc1C(=O)NCCN1CCOCC1 | > 32 | > 32 | > 32 | 
20 | Cn1cc(NC(=O)c2ccc(NC(=O)c3cc(NC(=O)c4cc5cc6c(cc5cn4)OCO6)cn3C)cc2)cc1C(=O)NCCN1CCOCC1 | 0.5 (≈ 0.722 µM) | 0.06 (≈ 0.0866 µM) | 0.5 (≈ 0.722 µM) | 
